# According to US20100249050A1, “[…] AND USE THEREOF” (SHANDONG UNIVERSITY, priority 2008, published 2010):
# How the values were obtained:
# Settings in all cases: for Inhibition rate of growth: 48-72 hrs
# [1] = system: human lung cancer cell A-549; assay: Antitumor activity test (MTT reduction / SRB protein staining), growth inhibition of A-549; type: cell-based
# Source text: (§1) Screening method: methyl-thiazol-tettazolium (MTT) reduction method and sulforhodamine B (SRB) protein staining method.
# (§2) Cell strains: human liver cancer cell HepG2, human lung cancer cell A-549, and breast cancer cell MDA-MB-435.
# [2] = system: human liver cancer cell HepG2; assay: Antitumor activity test (MTT reduction / SRB protein staining), growth inhibition of HepG2; type: cell-based
# Source text: as §1, §2
# [3] = system: breast cancer cell MDA-MB-435; assay: Antitumor activity test (MTT reduction / SRB protein staining), growth inhibition of MDA-MB-435; type: cell-based, human
# Source text: as §1, §2
smiles,measurement,setting,value
CC(=Cc1csc(C)n1)C1CC2OC2CCCC(C)C(O)C(C)C(=O)C(C)(C)C(OC2OC(CO)C(O)C2O)CC(=O)O1 (centres unmarked) [epothilone glycoside A-1],Inhibition grade (no / weak / strong effect),"[1]; A-549, at the concentration of 10^−6 M",weak inhibition
same,Inhibition rate of growth,"[1]; A-549, concentration 10^−4 M",90.6
same,Inhibition rate of growth,"[1]; A-549, concentration 10^−5 M",83.7
same,Inhibition rate of growth,"[1]; A-549, concentration 10^−6 M",72.0
same,Inhibition rate of growth,"[1]; A-549, concentration 10^−7 M",0
same,Inhibition rate of growth,"[1]; A-549, concentration 10^−8 M",0
same,IC50,"[2]; HepG2, 48-72 hrs",0.07 µM
same,Inhibition grade (no / weak / strong effect),"[2]; HepG2, at the concentration of 10^−6 M",strong inhibition
same,Inhibition rate of growth,"[2]; HepG2, concentration 10^−4 M",100
same,Inhibition rate of growth,"[2]; HepG2, concentration 10^−5 M",99.9
same,Inhibition rate of growth,"[2]; HepG2, concentration 10^−6 M",93.3
same,Inhibition rate of growth,"[2]; HepG2, concentration 10^−7 M",41.5
same,Inhibition rate of growth,"[2]; HepG2, concentration 10^−8 M",15.7
same,IC50,"[3]; MDA-MB-435, 48-72 hrs",2.07 µM
same,Inhibition grade (no / weak / strong effect),"[3]; MDA-MB-435, at the concentration of 10^−6 M",weak inhibition
same,Inhibition rate of growth,"[3]; MDA-MB-435, concentration 1 μM",18.9
same,Inhibition rate of growth,"[3]; MDA-MB-435, concentration 2 μM",55.0
same,Inhibition rate of growth,"[3]; MDA-MB-435, concentration 4 μM",76.1
same,Inhibition rate of growth,"[3]; MDA-MB-435, concentration 8 μM",84.6
same,Inhibition rate of growth,"[3]; MDA-MB-435, concentration 10 μM",98.2
